According to patent US9187448B2, “Flavonoid compounds” (CARDERO THERAPEUTICS, INC., priority 2011, dated 2015):

What was measured:
[1] = tested on: mitochondrial complex proteins (MCP) I and V; assay: Western blot of mitochondrial complex proteins (MCP) in coronary artery endothelial cells; format: cell-based, human (HCAEC) or bovine (BCAEC); settings: HCAEC or BCAEC, Western blot band intensity; results shown in FIG. 2
Procedure: The effect of (−)-epicatechin analogs on mitochondrial complex proteins (MCP) I and V was studied human (HCAEC) or bovine (BCAEC) Coronary Artery Endothelial cells. Western blots were performed as follows: Approximately 50 mg of cells were homogenized with a polytron in 500 μl lysis buffer (1% triton X-100, 20 mM Tris, 140 mM NaCl, 2 mM EDTA, and 0.1% SDS) with protease and phosphatase inhibitor cocktails (P2714 and P2850, Sigma-Aldrich, St. Louis, Mo.) supplemented with 0.15 mM PMSF, 5 mM Na3VO4 and 3 mM NaF. Homogenates were passed through an insulin syringe five times, sonicated for 30 min at 4° C. and centrifuged (12,000 g) for 10 min. The total protein content was measured in the supernatant using the Bradford method. A total of 40 μg of protein was loaded onto a 4%-15% precast TGX polyacrylamide gel (Bio-rad), electrotransferred (12 V, 50 minutes), incubated for 1 h in blocking solution (5% nonfat dry milk in TBS plus 0.1% Tween 20 [TBS-T]). Blots were probed with a cocktail of monoclonal antibodies to electron transport chain proteins (OXPHOS) (20 KDa subunit of complex I, 26 KDa subunit of complex IV, subunit core 2 of complex III, 30 Kda complex II and ATP synthase 54 Kda complex V). […] The band intensities were digitally quantified using ImageJ software (http://www.nih.gov).

[2] = rat; cited from earlier work
[3] = humans, ingested in chocolate; cited from earlier work
MRP2 efflux transporter = target: T1, MRP2 efflux transporter (Homo sapiens, UniProt Q92887); settings: human intestinal Caco-2 cells; cited from earlier work
T1 construct: In a study of enterocyte absorption using human intestinal Caco-2 cells; endogenous in cells; host or cells: Caco-2
T1 sequence (Q92887 whole entry): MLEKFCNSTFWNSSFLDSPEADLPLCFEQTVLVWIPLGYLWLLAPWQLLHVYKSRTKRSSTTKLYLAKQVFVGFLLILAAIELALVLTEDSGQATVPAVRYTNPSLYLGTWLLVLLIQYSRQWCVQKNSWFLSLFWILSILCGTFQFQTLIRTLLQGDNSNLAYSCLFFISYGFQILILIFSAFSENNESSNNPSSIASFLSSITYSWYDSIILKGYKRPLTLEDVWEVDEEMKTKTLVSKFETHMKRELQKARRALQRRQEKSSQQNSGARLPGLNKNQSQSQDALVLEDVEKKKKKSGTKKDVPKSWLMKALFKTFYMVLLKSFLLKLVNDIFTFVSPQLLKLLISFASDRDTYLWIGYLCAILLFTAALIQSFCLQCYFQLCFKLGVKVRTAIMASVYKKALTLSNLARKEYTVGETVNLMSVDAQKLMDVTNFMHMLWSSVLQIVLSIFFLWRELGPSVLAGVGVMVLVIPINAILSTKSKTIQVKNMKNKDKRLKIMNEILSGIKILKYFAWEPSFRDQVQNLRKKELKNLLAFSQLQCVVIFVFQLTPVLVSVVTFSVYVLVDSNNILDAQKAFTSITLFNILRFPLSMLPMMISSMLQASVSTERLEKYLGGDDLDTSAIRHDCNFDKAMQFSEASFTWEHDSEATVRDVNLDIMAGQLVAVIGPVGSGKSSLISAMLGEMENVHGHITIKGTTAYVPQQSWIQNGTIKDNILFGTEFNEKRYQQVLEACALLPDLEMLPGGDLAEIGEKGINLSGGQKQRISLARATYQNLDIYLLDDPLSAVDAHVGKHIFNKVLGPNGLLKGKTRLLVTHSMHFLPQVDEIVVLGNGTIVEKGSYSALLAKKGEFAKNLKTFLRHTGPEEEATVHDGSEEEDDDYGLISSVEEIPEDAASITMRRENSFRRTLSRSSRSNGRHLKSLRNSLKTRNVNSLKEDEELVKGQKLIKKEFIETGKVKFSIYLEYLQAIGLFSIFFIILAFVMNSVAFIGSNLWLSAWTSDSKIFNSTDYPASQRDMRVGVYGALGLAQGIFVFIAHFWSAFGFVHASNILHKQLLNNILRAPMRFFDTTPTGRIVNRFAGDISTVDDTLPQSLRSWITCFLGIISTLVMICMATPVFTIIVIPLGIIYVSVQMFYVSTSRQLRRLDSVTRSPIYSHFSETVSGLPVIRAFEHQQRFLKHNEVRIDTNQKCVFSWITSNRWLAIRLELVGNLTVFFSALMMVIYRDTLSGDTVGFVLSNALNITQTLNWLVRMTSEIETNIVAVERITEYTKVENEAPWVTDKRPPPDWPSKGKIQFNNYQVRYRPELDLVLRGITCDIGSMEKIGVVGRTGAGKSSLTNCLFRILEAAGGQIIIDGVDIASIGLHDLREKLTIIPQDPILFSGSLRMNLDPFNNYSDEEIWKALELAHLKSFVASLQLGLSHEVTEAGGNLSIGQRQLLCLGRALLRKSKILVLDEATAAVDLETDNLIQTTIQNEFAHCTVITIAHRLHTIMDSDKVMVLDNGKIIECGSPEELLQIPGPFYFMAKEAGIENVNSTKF

**Q.** Which “effect on MCP (activity/potency) relative to (−)-epicatechin” value [1] does the source give for COc1cc(OC)c2c(c1)O[C@H](c1ccc(O)c(O)c1)[C@H](O)C2 [5,7-dimethyl substituted (−)-epicatechin] here?
**A.** Its value is “less potent than the unsubstituted parent”.

**Q.** For Oc1cc(O)c2c(c1)O[C@H](c1ccc(O)c(O)c1)[C@@H](O)C2 [(+)-catechin], which “effect on absorption of (−)-epicatechin” value [2] is on record?
**A.** Its value is “inhibited”.

**Q.** Which results are given for Oc1cc(O)c2c(c1)O[C@H](c1ccc(O)c(O)c1)[C@H](O)C2 [(−)-epicatechin, (2R,3R)-2-(3,4-dihydroxyphenyl)chroman-3,5,7-triol]?
**A.** fraction absorbed [3]: approximately 30%; efflux transporter substrate status (MRP2 efflux transporter): substrate of the MRP2 efflux transporter

**Q.** With CN(C)C(=O)CCSC(SCCC(=O)O)c1cccc(/C=C/c2ccc3ccc(Cl)cc3n2)c1 (centres unmarked) [MK-571] as the molecule, how does the “effect of MRP2 inhibition on absorption of (−)-epicatechin” value (MRP2 efflux transporter) read?
**A.** Its value is “increased absorption of (−)-epicatechin somewhat”.
